One test has as its target T1, p38α (Homo sapiens, UniProt Q16539).
T1 construct: p38 MAP Kinases are recombinant human full-length proteins with an amino-terminal GST fusion; GST (N); purchased Upstate Biotechnology Inc; host or cells: E. coli
Nature of the test: p38 MAP Kinase assay: inhibition of ATF2 phosphorylation, ELISA. The test is classed as biochemical. The conditions noted are these: ATF2 phosphorylation; read-out: [ENZ] P38 ALPHA, IC50, ELISA. An outline of the steps: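 GST-tagged full-length human p38 MAP kinase with GST-ATF2 (aa 19–96; 1.25 μM) and 40 μM ATP in HEPES pH 7.5 buffer, without (Method I) or with (Method II) 1% human serum albumin. Compound pre-incubated 15 min at room temperature; reaction 30 min at 37 °C; ATF2 Thr69 phosphorylation measured by ELISA (A450).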
On the technique in general: In an ELISA, binding on a coated surface is turned into a signal by an enzyme label.

In test [1] the test system is TNFα release from THP-1 cells. Nature of the test: Inhibition of TNFα release from LPS-stimulated THP-1 cells, ELISA. Type of test: cell-based. The conditions noted are these: Homo sapiens, THP-1, THP-1 cells, read-out: [CELL] THP-1, IC50, TNF ALPHA, ELISA. In outline: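 Human THP-1 monocytes, 10^6 cells/ml in RPMI with 10% FBS, no serum or 1% HSA, preincubated 30 min at 37 °C with compound (≤0.5% DMSO), then stimulated with 10 μg/ml LPS for 18 h. Supernatant TNFα measured by ELISA; IC50 from non-linear dose-response regression.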

Values joined by “and” are separate entries in the source; they are usually repeats but may differ in a detail not shown here. Identical values can stand only once.

As a reminder, the IC50 is the midpoint of a concentration-inhibition curve.

T1 sequence (Q16539 whole entry, the tested form may be a part): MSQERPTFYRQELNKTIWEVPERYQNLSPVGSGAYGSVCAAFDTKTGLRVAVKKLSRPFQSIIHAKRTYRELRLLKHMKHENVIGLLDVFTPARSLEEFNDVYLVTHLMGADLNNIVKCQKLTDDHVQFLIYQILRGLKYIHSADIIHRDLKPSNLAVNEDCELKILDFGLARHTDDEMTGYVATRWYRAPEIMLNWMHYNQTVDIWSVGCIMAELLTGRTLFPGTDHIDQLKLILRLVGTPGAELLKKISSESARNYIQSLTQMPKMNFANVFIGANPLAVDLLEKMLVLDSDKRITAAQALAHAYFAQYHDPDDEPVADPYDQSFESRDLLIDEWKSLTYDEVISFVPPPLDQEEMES

With `CCOc1cccc(-c2cccc(C(=O)Nc3ccc(OCCN4CCOCC4)c4ccccc34)c2)c1` [Compound B286], the half-maximal inhibitory concentration (IC50) (on p38α; in test [1]) was above 10000 nM each time.

Take `Cc1ccc(C)c(-c2cccc(C(=O)Nc3ccc(OCCN4CCOCC4)c4ccccc34)c2)c1` [Compound B287, 2′,5′-dimethyl-biphenyl-3-carboxylic acid [4-(2-morpholin-4-yl-ethoxy)-naphthalen-1-yl]-amide]: the results for the IC50 (at p38α; in test [1]) were 934 nM and 5000 nM, respectively.

As to `O=C(Nc1ccc(OCCN2CCOCC2)c2ccccc12)c1cccc(-c2cccc(F)c2F)c1` [Compound B288], the half-inhibitory concentration (IC50) at p38α came to 2720 nM; in test [1], 10100 nM.

As for `COc1ccc(F)cc1-c1cccc(C(=O)Nc2ccc(OCCN3CCOCC3)c3ccccc23)c1` [Compound B289], the IC50 worked out at 1470 nM on p38α and 3090 nM in test [1].

As for `COc1ccc(-c2cccc(C(=O)Nc3ccc(OCCN4CCOCC4)c4ccccc34)c2)cc1F` [Compound B290], the 50% inhibitory concentration (IC50) (at p38α; in test [1]) was above 10000 nM throughout.

For the compound `CCc1ccccc1-c1cccc(C(=O)Nc2ccc(OCCN3CCOCC3)c3ccccc23)c1` [Compound B291], the results for the IC50 (at p38α; in test [1]) were 9190 nM and 6140 nM, respectively.

As to `COc1cccc(-c2cccc(C(=O)Nc3ccc(OCCN4CCOCC4)c4ccccc34)c2)c1OC` [Compound B292], the IC50 (on p38α; in test [1]) was above 10000 nM in each case.

For `Cc1cc(Cl)ccc1-c1cccc(C(=O)Nc2ccc(OCCN3CCOCC3)c3ccccc23)c1` [Compound B293], the IC50 is 10300 nM on p38α and above 10000 nM in test [1].

Take `COc1ccc(C(C)C)cc1-c1cccc(C(=O)Nc2ccc(OCCN3CCOCC3)c3ccccc23)c1` [Compound B294]: the IC50 (on p38α; in test [1]) was above 10000 nM each time.

Regarding `O=C(Nc1ccc(OCCN2CCOCC2)c2ccccc12)c1cccc(-c2cc(Cl)ccc2Cl)c1` [Compound B295], the IC50 at p38α was 5030 nM; in test [1], 2830 nM.

Turning to `Cc1cccc(-c2cccc(C(=O)Nc3ccc(OCCN4CCOCC4)c4ccccc34)c2)c1C` [Compound B296], the values for the IC50 (at p38α; in test [1]) were 1880 nM and 8710 nM, respectively.

For `O=C(Nc1ccc(OCCN2CCOCC2)c2ccccc12)c1cccc(-c2cccc(OC(F)(F)F)c2)c1` [Compound B297], the IC50 (at p38α; in test [1]) was above 10000 nM each time.

For the compound `CSc1cccc(-c2cccc(C(=O)Nc3ccc(OCCN4CCOCC4)c4ccccc34)c2)c1` [Compound B298], the IC50 on p38α was 7370 nM; in test [1], above 10000 nM.

In the case of `Cc1ccc(-c2cccc(C(=O)Nc3ccc(OCCN4CCOCC4)c4ccccc34)c2)c(C)c1` [Compound B299], the IC50 (on p38α; in test [1]) was above 10000 nM throughout.

On to `Cc1cc(-c2cccc(C(=O)Nc3ccc(OCCN4CCOCC4)c4ccccc34)c2)ccc1Cl` [Compound B300], for which the results for the IC50 (on p38α; in test [1]) were 9080 nM and 9060 nM, respectively.

With `CCOc1ccc(Cl)cc1-c1cccc(C(=O)Nc2ccc(OCCN3CCOCC3)c3ccccc23)c1` [Compound B301], the half-maximal inhibitory concentration (IC50) (on p38α; in test [1]) was above 10000 nM throughout.

As to `Cc1cc(C)c(-c2cccc(C(=O)Nc3ccc(OCCN4CCOCC4)c4ccccc34)c2)cc1C` [Compound B302], the IC50 (at p38α; in test [1]) was above 10000 nM in each case.

Consider `O=C(Nc1ccc(OCCN2CCOCC2)c2ccccc12)c1cc(Cl)nc(N2CCOCC2)c1` [Compound B305], for which the IC50 turned out to be 1410 nM at p38α and 2480 nM in test [1].

As for `CN(C)CC(C)(C)CNc1nccc(Oc2ccc(NC(=O)c3cc(F)cc(OC4CCCCC4)c3)c3ccccc23)n1` [Compound B313], the IC50 on p38α was 2 nM and 2.2 nM; in test [1], 48.3 nM.

As for `Cc1cc(F)ccc1-c1cccc(C(=O)Nc2ccc(Oc3ccnc(NCC(C)(C)CN(C)C)n3)c3ccccc23)c1` [Compound B314, 4′-Fluoro-2′-methyl-biphenyl-3-carboxylic acid {4-[2-(3-dimethylamino-2,2-dimethyl-propylamino)-pyrimidin-4-yloxy]-naphthalen-1-yl}-amide], the IC50 on p38α stood at 1 nM; in test [1] it was 41.2 nM.

For the compound `O=C(Nc1ccc(CN2CCOCC2)c2ccccc12)c1cc(F)cc(N2CCOCC2)c1` [Compound B316, 3-Fluoro-5-morpholin-4-yl-N-(4-morpholin-4-ylmethyl-naphthalen-1-yl)-benzamide], the IC50 on p38α came to 1200 nM; in test [1], 879 nM.

With `CN(C)CC(C)(C)CNc1nccc(Oc2ccc(NC(=O)c3cc(F)cc(N4CCOCC4)c3)c3ccccc23)n1` [Compound B317, N-{4-[2-(3-Dimethylamino-2,2-dimethyl-propylamino)-pyrimidin-4-yloxy]-naphthalen-1-yl}-3-fluoro-5-morpholin-4-yl-benzamide], the IC50 was determined as 9.9 nM on p38α and 23.8 nM in test [1].

Turning to `CCOC(=O)N1CCN(c2nccc(Oc3ccc(NC(=O)c4cc(F)cc(N5CCOCC5)c4)c4ccccc34)n2)CC1` [Compound B329, Ethyl-4-[4-({4-[(3-fluoro-5-morpholin-4-ylbenzoyl)amino]-1-naphthyl}oxy)pyrimidin-2-yl]piperazine-1-carboxylate], the IC50 was 10.5 nM at p38α and above 1000 nM in test [1].

Consider `N#CNc1nccc(Oc2ccc(NC(=O)c3cc(F)cc(N4CCOCC4)c3)c3ccccc23)n1` [Compound B330, N-(4-{[2-(Cyanoamino)pyrimidin-4-yl]oxy}-1-naphthyl)-3-fluoro-5-morpholin-4-ylbenzamide], for which the IC50 was 51.5 nM on p38α and above 1000 nM in test [1].

For the compound `COCC(C)Nc1nccc(Oc2ccc(NC(=O)c3cc(F)cc(N4CCOCC4)c3)c3ccccc23)n1` (centres unmarked) [Compound B353], the IC50 at p38α came out at 3.9 nM; in test [1], 92.6 nM.

Regarding `CC(=O)N1CCN(c2nccc(Oc3ccc(NC(=O)c4cc(F)cc(N5CCOCC5)c4)c4ccccc34)n2)CC1` [Compound B354], the concentration for half-maximal inhibition (IC50) on p38α was 9.4 nM; in test [1], 217 nM.

Regarding `CC1CCCN1c1nccc(Oc2ccc(NC(=O)c3cc(F)cc(N4CCOCC4)c3)c3ccccc23)n1` (centres unmarked) [Compound B355], the IC50 at p38α was 68.7 nM; in test [1] it was 878 nM.

For the compound `CN(C)C(=O)[C@@H]1CCCN1c1nccc(Oc2ccc(NC(=O)c3cc(F)cc(N4CCOCC4)c3)c3ccccc23)n1` [Compound B356], the half-maximal inhibitory concentration (IC50) is 264 nM at p38α and above 1000 nM in test [1].

On to `COC(CNc1nccc(Oc2ccc(NC(=O)c3cc(F)cc(N4CCOCC4)c3)c3ccccc23)n1)OC` [Compound B357], for which the values for the IC50 (on p38α; in test [1]) were 3 nM and 30.1 nM, respectively.

Turning to `O=C(Nc1ccc(Oc2ccnc(NC[C@@H]3CCCO3)n2)c2ccccc12)c1cc(F)cc(N2CCOCC2)c1` [Compound B358], the values for the IC50 (at p38α; in test [1]) were 3.2 nM and 9.5 nM, respectively.

Regarding `O=C(Nc1ccc(Oc2ccnc(N3CCC(CO)CC3)n2)c2ccccc12)c1cc(F)cc(N2CCOCC2)c1` [Compound B359], the IC50 on p38α worked out at 4.2 nM; in test [1], 104 nM.

Turning to `CCN1CCC[C@H]1CNc1nccc(Oc2ccc(NC(=O)c3cc(F)cc(N4CCOCC4)c3)c3ccccc23)n1` [Compound B360], the half-inhibitory concentration (IC50) amounted to 22.5 nM on p38α and 63 nM in test [1].

As for `O=C(Nc1ccc(Oc2ccnc(N3CCC(F)(F)CC3)n2)c2ccccc12)c1cc(F)cc(N2CCOCC2)c1` [Compound B361], the IC50 on p38α turned out to be 55.5 nM; in test [1], 475 nM.

For `CN(CCO)c1nccc(Oc2ccc(NC(=O)c3cc(F)cc(N4CCCCC4)c3)c3ccccc23)n1` [Compound B373], the half-inhibitory concentration (IC50) amounted to 20.9 nM on p38α and 674 nM in test [1].

Consider `O=C(Nc1ccc(Oc2ccnc(N3CCCCC3)n2)c2ccccc12)c1cc(F)cc(N2CCCCC2)c1` [Compound B375, 3-Fluoro-5-piperidin-1-yl-N-{4-[(2-piperidin-1-ylpyrimidin-4-yl)oxy]-1-naphthyl}benzamide], for which the IC50 on p38α was 107 nM; in test [1] it was above 1000 nM.

Consider `O=C(Nc1ccc(Oc2ccnc(NCC3CCCO3)n2)c2ccccc12)c1cc(F)cc(N2CCCCC2)c1` (centres unmarked) [Compound B386, 3-Fluoro-5-piperidin-1-yl-N-[4-({2-[(tetrahydrofuran-2-ylmethyl)amino]pyrimidin-4-yl}oxy)-1-naphthyl]benzamide], for which the IC50 on p38α is 1.8 nM; in test [1] it was 26.2 nM.

As to `CC1CC(C)CN(c2nccc(Oc3ccc(NC(=O)c4cc(F)cc(N5CCCCC5)c4)c4ccccc34)n2)C1` (centres unmarked) [Compound B391], the IC50 was 207 nM on p38α and above 1000 nM in test [1].

With `O=C(Nc1ccc(Oc2ccnc(N3CCC(O)C3)n2)c2ccccc12)c1cc(F)cc(N2CCCCC2)c1` (centres unmarked) [Compound B393], the IC50 on p38α was found to be 16.8 nM; in test [1] it was 715 nM.

Turning to `CC(C)Nc1nccc(Oc2ccc(NC(=O)c3cc(F)cc(N4CCCCC4)c3)c3ccccc23)n1` [Compound B396, 3-Fluoro-N-(4-{[2-(isopropylamino)pyrimidin-4-yl]oxy}-1-naphthyl)-5-piperidin-1-ylbenzamide], the half-maximal inhibitory concentration (IC50) on p38α was 6 nM; in test [1] it was 201 nM.

Consider `O=C(Nc1ccc(Oc2ccnc(NC3(CO)CCCC3)n2)c2ccccc12)c1cc(F)cc(N2CCCCC2)c1` [Compound B399, 3-Fluoro-N-{4-[(2-{[1-(hydroxymethyl)cyclopentyl]amino}pyrimidin-4-yl)oxy]-1-naphthyl}-5-piperidin-1-ylbenzamide], for which the IC50 is 12.7 nM on p38α and 136 nM in test [1].

For the origin of these results see patent US7829560B2, “1,4-disubstituted naphthalenes as inhibitors of P38 MAP kinase” (Arqule, Inc., priority 2004, dated 2010).
